Patent publication US8586739B2, “Heterocyclic compounds and their uses” (Amgen Inc., priority 2007, dated 2013)

Test system: human B cells
Assay: Human B cells proliferation stimulated by anti-IgM (3H thymidine)
Type: cell-based
Conditions: Homo sapiens, B-cell, 72 h, purified human B cells, anti-Human IgM + CD40L-LZ
Procedure: Human B Cells Proliferation stimulate by anti-IgM
Isolate PBMCs from Leukopac or from human fresh blood. Isolate human B cells by using Miltenyi protocol and B cell isolation kit II.—human B cells were Purified by using autoMACS® column.
Activation of Human B Cells
Use 96 well Flat bottom plate, plate 50000/well purified B cells in B cell proffer-ation medium (DMEM+5% FCS, 10 mM Hepes, 50 μM 2-mercaptoethanol); 150 μL medium contain 250 ng/mL CD40L-LZ recombinant protein (Amgen) and 2 μg/mL anti-Human IgM antibody (Jackson ImmunoReseach Lab.#109-006-129), mixed with 50 μL B cell medium containing PI3K inhibitors and incubate 72 h at 37° C. incubator. After 72 h, pulse labeling B cells with 0.5-1 uCi/well ^3H thymidine for overnight ˜18 h, and harvest cell using TOM harvester.

Row | SMILES | IC50
1 | C[C@H](Nc1ncnc2[nH]cnc12)c1cc2cccc(Cl)c2nc1-c1cccc(F)n1 [N-((1S)-1-(8-chloro-2-(6-fluoro-2-pyridinyl)-3-quinolinyl)ethyl)-9H-purin-6-amine] | 3.1 nM
2 | C[C@H](Nc1ncnc2[nH]cnc12)c1cc2cccc(Cl)c2nc1-n1ccc(C(F)(F)F)n1 [N-((1S)-1-(8-chloro-2-(3-(trifluoromethyl)-1H-pyrazol-1-yl)-3-quinolinyl)ethyl)-9H-purin-6-amine] | 449 nM
3 | C[C@H](Nc1ncnc2[nH]cnc12)c1cc2cccc(-c3cccc(F)c3)c2nc1-c1cccc(F)c1 [N-((1S)-1-(2,8-bis(3-fluorophenyl)-3-quinolinyl)ethyl)-9H-purin-6-amine] | 1.06 nM
4 | CC(C)c1ncccc1-c1nc2c(Cl)cccc2cc1CNc1ncnc2[nH]cnc12 [N-((8-chloro-2-(2-(1-methylethyl)-3-pyridinyl)-3-quinolinyl)methyl)-9H-purin-6-amine] | 30.6 nM
5 | CCC[C@H](Nc1ncnc2[nH]cnc12)c1cc2cccc(Cl)c2nc1-c1cccc(F)c1 [N-((1S)-1-(8-chloro-2-(3-fluorophenyl)-3-quinolinyl)butyl)-9H-purin-6-amine] | 6.52 nM
6 | C[C@H](Nc1ncnc2[nH]cnc12)c1cc2cccc(C#N)c2nc1-c1ccccn1 [3-((1S)-1-(9H-purin-6-ylamino)ethyl)-2-(2-pyridinyl)-8-quinolinecarbonitrile] | 46.7 nM
7 | Clc1ccccc1-c1nc2c(Cl)cccc2nc1CNc1ncnc2[nH]cnc12 [N-((5-chloro-3-(2-chlorophenyl)-2-quinoxalinyl)methyl)-9H-purin-6-amine] | 82.5 nM
8 | CC(C)c1ccncc1-c1nc2c(Cl)cccc2cc1CNc1ncnc2[nH]cnc12 [N-((8-chloro-2-(4-(1-methylethyl)-3-pyridinyl)-3-quinolinyl)methyl)-9H-purin-6-amine] | 25.8 nM
9 | C[C@H](Nc1ncnc2[nH]cnc12)c1cc2c(Cl)cccc2nc1-c1cccc(F)c1 [N-((S)-1-(5-Chloro-2-(3-fluorophenyl)quinolin-3-yl)ethyl)-9H-purin-6-amine] | 14.2 nM
10 | CS(=O)(=O)c1ccccc1-c1nc2c(Cl)cccc2cc1CNc1ncnc2[nH]cnc12 [N-((8-chloro-2-(2-(methylsulfonyl)phenyl)-3-quinolinyl)methyl)-9H-purin-6-amine] | 151 nM
11 | Fc1cccc(-c2nc3c(Br)cccc3cc2CNc2ncnc3[nH]cnc23)c1 [N-((8-Bromo-2-(3-fluorophenyl)quinolin-3-yl)methyl)-9H-purin-6-amine] | 68.8 nM
12 | C[C@@H](Nc1ncnc2[nH]cnc12)c1nc2cccc(Cl)c2nc1-c1cccc(F)c1 [N-((R)-1-(5-Chloro-3-(3-fluorophenyl)quinoxalin-2-yl)ethyl)-9H-purin-6-amine] | 13.9 nM
13 | Fc1ccc(-c2nc3c(Cl)cccc3cc2CNc2ncnc3nc[nH]c23)cc1 [N-((8-chloro-2-(4-fluorophenyl)-3-quinolinyl)methyl)-7H-purin-6-amine] | 265 nM
14 | C[C@H](Nc1ncnc2[nH]cnc12)c1nc2cccc(Cl)c2nc1-c1cc(F)ccc1Cl [N-((1S)-1-(5-chloro-3-(2-chloro-5-fluorophenyl)-2-quinoxalinyl)ethyl)-9H-purin-6-amine] | 89.3 nM
15 | Clc1cccc2cc(CNc3ncnc4[nH]cnc34)c(-c3cccs3)nc12 [N-((8-chloro-2-(2-thiophenyl)-3-quinolinyl)methyl)-9H-purin-6-amine] | 104 nM
16 | Cc1ncccc1-c1nc2c(Cl)cccc2cc1[C@H](C)Nc1ncnc2[nH]cnc12 [N-((1S)-1-(8-chloro-2-(2-methyl-3-pyridinyl)-3-quinolinyl)ethyl)-9H-purin-6-amine] | 4.34 nM

Row | SMILES | IC50
17 | Clc1cccc2cc(CNc3ncnc4[nH]cnc34)c(-c3ccccc3-c3nn[nH]n3)nc12 [N-((8-chloro-2-(2-(2H-tetrazol-5-yl)phenyl)-3-quinolinyl)methyl)-9H-purin-6-amine] | 9710 nM
18 | C[C@H](Nc1ncnc2[nH]cnc12)c1cc2ccc(F)cc2nc1-c1ccccc1S(C)(=O)=O [N-((1S)-1-(7-fluoro-2-(2-(methylsulfonyl)phenyl)-3-quinolinyl)ethyl)-9H-purin-6-amine] | 6.82 nM
19 | Fc1ccc(OCc2cccnc2)c(-c2nc3c(Cl)cccc3cc2CNc2ncnc3[nH]cnc23)c1 [N-((8-chloro-2-(5-fluoro-2-(3-pyridinylmethoxy)phenyl)-3-quinolinyl)methyl)-9H-purin-6-amine] | 178 nM
20 | C[C@H](Nc1ncnc2[nH]cnc12)c1cc2ccc(F)cc2nc1-c1cccc(F)c1 [N-((1S)-1-(7-fluoro-2-(3-fluorophenyl)-3-quinolinyl)ethyl)-9H-purin-6-amine] | 11.5 nM
21 | C[C@H](Nc1ncnc2[nH]cnc12)c1cc2cccc(-c3ccccn3)c2nc1-c1ccccn1 [N-((1S)-1-(2,8-di-2-pyridinyl-3-quinolinyl)ethyl)-9H-purin-6-amine] | 67.4 nM
22 | Fc1ccc(Cl)c(-c2nc3c(Cl)cccc3nc2CNc2ncnc3[nH]cnc23)c1 [N-((5-Chloro-3-(2-chloro-5-fluorophenyl)quinoxalin-2-yl)methyl)-9H-purin-6-amine] | 165 nM
23 | C[C@H](Nc1ncnc2nc[nH]c12)c1cc2cccc(F)c2nc1-c1cccc(F)c1 [N-((S)-1-(8-fluoro-2-(3-fluorophenyl)quinolin-3-yl)ethyl)-7H-purin-6-amine] | 5.15 nM
24 | COc1nc(-c2nc3c(Cl)cccc3cc2[C@H](C)Nc2ncnc3[nH]cnc23)cs1 [N-((1S)-1-(8-chloro-2-(2-methoxy-1,3-thiazol-4-yl)-3-quinolinyl)ethyl)-9H-purin-6-amine] | 17.5 nM
25 | Clc1cccc2cc(CNc3ncnc4[nH]cnc34)c(-c3ccccn3)nc12 [N-((8-chloro-2-(2-pyridinyl)-3-quinolinyl)methyl)-9H-purin-6-amine] | 34.1 nM
26 | C[C@H](Nc1ncnc2[nH]cnc12)c1cc2cccc(Cl)c2nc1-c1ccc(F)cc1F [N-((1S)-1-(8-chloro-2-(2,4-difluorophenyl)-3-quinolinyl)ethyl)-9H-purin-6-amine] | 14 nM
27 | Nc1nc(NCc2cc3cccc(Cl)c3nc2-c2ccccc2Cl)c2nc[nH]c2n1 [N6-((8-chloro-2-(2-chlorophenyl)-3-quinolinyl)methyl)-9H-purine-2,6-diamine] | 8.9 nM
28 | CC(C)c1ccccc1-c1nc2c(Cl)cccc2cc1CNc1ncnc2[nH]cnc12 [N-((8-chloro-2-(2-(1-methylethyl)phenyl)-3-quinolinyl)methyl)-9H-purin-6-amine] | 17.6 nM
29 | C[C@H](Nc1ncnc2[nH]cnc12)c1cc2ccc(F)cc2nc1-c1cccc(S(C)(=O)=O)c1 [N-((1S)-1-(7-fluoro-2-(3-(methylsulfonyl)phenyl)-3-quinolinyl)ethyl)-9H-purin-6-amine] | 148 nM
30 | N#Cc1ccccc1-c1nc2c(Cl)cccc2cc1CNc1ncnc2[nH]cnc12 [2-(8-chloro-3-((9H-purin-6-ylamino)methyl)-2-quinolinyl)benzonitrile] | 55.1 nM
31 | CCc1ncc(F)cc1-c1nc2c(Cl)cccc2cc1[C@H](C)Nc1ncnc2[nH]cnc12 [N-((1S)-1-(8-chloro-2-(2-ethyl-5-fluoro-3-pyridinyl)-3-quinolinyl)ethyl)-9H-purin-6-amine] | 3.84 nM
32 | CC(C)c1cccc(-c2nc3c(Cl)cccc3cc2CNc2ncnc3[nH]cnc23)c1 [N-((8-chloro-2-(3-(1-methylethyl)phenyl)-3-quinolinyl)methyl)-9H-purin-6-amine] | 305 nM
